The numbers were not newly measured in US11969522B2, “Use of immune modulators to improve nerve regeneration” (The Board of Regents of the University of Texas System, priority 2019, dated 2024), which cites them from elsewhere.

One data set concerns CXCR4. As to conditions: chronic exposure, rhesus macaques.
Another data set deals with hematopoietic stem cells. The following applies: animal and human studies.

Each structure is given as a SMILES string.

Consider `CCCCCc1cc(O)c2c(c1)OC(C)(C)[C@@H]1CCC(C)=C[C@@H]21` [THC], for which the “T lymphocyte CXCR4 expression on both CD4+ and CD8+ T lymphocytes” value in the data set on CXCR4 is listed as “increase”.
Turning to `c1cc(CN2CCCNCCNCCCNCC2)ccc1CN1CCCNCCNCCCNCC1` [Plerixafor], in the data set on hematopoietic stem cells, the “hematopoietic stem cell mobilization” value is listed as “very efficient inducer of hematopoietic stem cell mobilization”.
